In PubChem BioAssay AID2060498 (Molecular Pharmacology Branch, DTP, NCI, 2025):

Test system: 171881-019-R-J1-PDC tumor spheroids, viability
Test: Anticancer human tumor 171881-019-R-J1-PDC patient-derived invasive breast carcinoma cell line growth inhibition [GQUAD]
Conditions: spheroids with HUVEC and MSC; for IC50: curve of first compound; for viability, T/C: stronger effect = lower value; active means viability on the fitted dose curve at most 10% of control; inactive means the rest
How it was run: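 Tumor cells were grown as complex spheroids with HUVEC endothelial cells and mesenchymal stem cells as stroma. G-quadruplex stabilizers were combined with targeted agents over half-log dilutions from near the clinical Cmax, or from 10 microM.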

[1] = second compound 0.0316 µM, first compound 0.0316 µM
[2] = second compound 0.0316 µM, first compound 0.316 µM
[3] = second compound 0.1 µM, first compound 0.0316 µM
[4] = second compound 0.1 µM, first compound 0.316 µM
[5] = second compound 0.316 µM, first compound 0.0316 µM
[6] = second compound 0.316 µM, first compound 0.316 µM
[7] = second compound 1 µM, first compound 0.0316 µM
[8] = second compound 1 µM, first compound 0.316 µM
[9] = second compound 3.16 µM, first compound 0.0316 µM
[10] = second compound 3.16 µM, first compound 0.316 µM
[11] = second compound 10 µM, first compound 0.0316 µM
[12] = second compound 10 µM, first compound 0.316 µM
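Further: spheroids exposed to compounds for 7 days.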
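Wherever viability, T/C is given: 100% = DMSO vehicle control viability.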

O=C(NO)c1cnc(N2CCN(S(=O)(=O)c3ccc4ccccc4c3)CC2)nc1 + CN(C)c1ccc(Nc2c3ccc(NC(=O)CCN4CCCC4)cc3nc3cc(NC(=O)CCN4CCCC4)ccc23)cc1
< 0.0316 µM: IC50 (second compound 0.316 µM) | IC50 (second compound 1 µM) | IC50 (second compound 3.16 µM) | IC50 (second compound 10 µM)
active: viability, T/C (second compound 0.0316 µM, first compound 1 µM) 0.61% | viability, T/C (second compound 0.0316 µM, first compound 3.16 µM) 0.11% | viability, T/C (second compound 0.0316 µM, first compound 10 µM) 0.11% | viability, T/C (second compound 0.1 µM, first compound 1 µM) 0.74% | viability, T/C (second compound 0.1 µM, first compound 3.16 µM) 0.22% | viability, T/C (second compound 0.1 µM, first compound 10 µM) 0.38% | viability, T/C (second compound 0.316 µM, first compound 1 µM) 0.25% | viability, T/C (second compound 0.316 µM, first compound 3.16 µM) 0.08% | viability, T/C (second compound 0.316 µM, first compound 10 µM) 0.21% | viability, T/C [7] 3.24% | viability, T/C (second compound 1 µM, first compound 0.1 µM) 1.83% | viability, T/C [8] 0.75% | viability, T/C (second compound 1 µM, first compound 1 µM) 0.1% | viability, T/C (second compound 1 µM, first compound 3.16 µM) 0.06% | viability, T/C (second compound 1 µM, first compound 10 µM) 0.31% | viability, T/C [9] 0.23% | viability, T/C (second compound 3.16 µM, first compound 0.1 µM) 0.4% | viability, T/C [10] 0.28% | viability, T/C (second compound 3.16 µM, first compound 1 µM) 0.06% | viability, T/C (second compound 3.16 µM, first compound 3.16 µM) 0.08% | viability, T/C (second compound 3.16 µM, first compound 10 µM) 0.1% | viability, T/C [11] 0.07% | viability, T/C (second compound 10 µM, first compound 0.1 µM) 0.12% | viability, T/C [12] 0.38% | viability, T/C (second compound 10 µM, first compound 1 µM) 0.34% | viability, T/C (second compound 10 µM, first compound 3.16 µM) 0.29% | viability, T/C (second compound 10 µM, first compound 10 µM) 0.15%
inactive: viability, T/C [1] 101% | viability, T/C (second compound 0.0316 µM, first compound 0.1 µM) 73.7% | viability, T/C [2] 35.6% | viability, T/C [3] 86.7% | viability, T/C (second compound 0.1 µM, first compound 0.1 µM) 80.1% | viability, T/C [4] 34.8% | viability, T/C [5] 44.2% | viability, T/C (second compound 0.316 µM, first compound 0.1 µM) 37.8% | viability, T/C [6] 10.6%
0.215 µM: IC50 (second compound 0.1 µM)
0.197 µM: IC50 (second compound 0.0316 µM)

Cc1[nH]c2ccccc2c1CCNCc1ccc(/C=C/C(=O)NO)cc1 + Cc1[nH]c2ccc(F)cc2c1-c1nc2c3cccnc3c3ncccc3c2[nH]1
< 0.000999 µM: IC50 (second compound 3.16 µM) | IC50 (second compound 10 µM)
active: viability, T/C [2] 0.66% | viability, T/C [4] 0.58% | viability, T/C [6] 0.34% | viability, T/C [8] 0.35% | viability, T/C (second compound 3.16 µM, first compound 0.00316 µM) 7.8% | viability, T/C (second compound 3.16 µM, first compound 0.00999 µM) 7.35% | viability, T/C [9] 5.79% | viability, T/C (second compound 3.16 µM, first compound 0.0999 µM) 1.55% | viability, T/C [10] 0.52% | viability, T/C [12] 0.41%
0.0491 µM: IC50 (second compound 0.316 µM)
inactive: viability, T/C (second compound 0.0316 µM, first compound 0.000999 µM) 109% | viability, T/C (second compound 0.0316 µM, first compound 0.00316 µM) 107% | viability, T/C (second compound 0.0316 µM, first compound 0.00999 µM) 94.6% | viability, T/C [1] 84.6% | viability, T/C (second compound 0.0316 µM, first compound 0.0999 µM) 22.5% | viability, T/C (second compound 0.1 µM, first compound 0.000999 µM) 90.7% | viability, T/C (second compound 0.1 µM, first compound 0.00316 µM) 98.2% | viability, T/C (second compound 0.1 µM, first compound 0.00999 µM) 99.5% | viability, T/C [3] 91.7% | viability, T/C (second compound 0.1 µM, first compound 0.0999 µM) 24.8% | viability, T/C (second compound 0.316 µM, first compound 0.000999 µM) 91.7% | viability, T/C (second compound 0.316 µM, first compound 0.00316 µM) 72.2% | viability, T/C (second compound 0.316 µM, first compound 0.00999 µM) 85.5% | viability, T/C [5] 63.3% | viability, T/C (second compound 0.316 µM, first compound 0.0999 µM) 27% | viability, T/C (second compound 1 µM, first compound 0.000999 µM) 66.8% | viability, T/C (second compound 1 µM, first compound 0.00316 µM) 55.9% | viability, T/C (second compound 1 µM, first compound 0.00999 µM) 63.1% | viability, T/C [7] 50.3% | viability, T/C (second compound 1 µM, first compound 0.0999 µM) 20.4% | viability, T/C (second compound 3.16 µM, first compound 0.000999 µM) 9.69% | viability, T/C (second compound 10 µM, first compound 0.000999 µM) 43.6% | viability, T/C (second compound 10 µM, first compound 0.00316 µM) 46.2% | viability, T/C (second compound 10 µM, first compound 0.00999 µM) 41.6% | viability, T/C [11] 46.7% | viability, T/C (second compound 10 µM, first compound 0.0999 µM) 13.9%
0.0596 µM: IC50 (second compound 0.0316 µM)
0.0648 µM: IC50 (second compound 0.1 µM)
0.0325 µM: IC50 (second compound 1 µM)
